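Following 48 hours of exposure in 96-well plates, responses at five concentrations were used to interpolate endpoints linearly. GI50 marks 50% less growth. TGI is the concentration that stops growth completely.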
Tests used:
Test in all cases: NCI tumour cell line growth inhibition, 48 h
HL-60(TB) leukemia = system: HL-60(TB) leukemia
SK-MEL-2 melanoma = system: SK-MEL-2 melanoma
RPMI-8226 leukemia = system: RPMI-8226 leukemia
K-562 leukemia = system: K-562 leukemia
M14 melanoma = system: M14 melanoma
KM12 colon = system: KM12 colon
NCI-H23 lung = system: NCI-H23 lung
IGROV1 ovarian = system: IGROV1 ovarian
SF-268 CNS = system: SF-268 CNS
SN12C renal = system: SN12C renal

| Structure (SMILES) | TGI (HL-60(TB) leukemia) [µM] | TGI (SK-MEL-2 melanoma) [µM] | TGI (RPMI-8226 leukemia) [µM] | TGI (K-562 leukemia) [µM] | TGI (M14 melanoma) [µM] | TGI (KM12 colon) [µM] | TGI (NCI-H23 lung) [µM] | TGI (IGROV1 ovarian) [µM] | TGI (SF-268 CNS) [µM] | TGI (SN12C renal) [µM] | GI50 (HL-60(TB) leukemia) [µM] | GI50 (SK-MEL-2 melanoma) [µM] | GI50 (M14 melanoma) [µM] | GI50 (IGROV1 ovarian) [µM] | GI50 (SF-268 CNS) [µM] | GI50 (RPMI-8226 leukemia) [µM] | GI50 (K-562 leukemia) [µM] | GI50 (KM12 colon) [µM] | GI50 (NCI-H23 lung) [µM] | GI50 (SN12C renal) [µM] |
| --- | --- | --- | --- | --- | --- | --- | --- | --- | --- | --- | --- | --- | --- | --- | --- | --- | --- | --- | --- | --- |
| CN=C(N)/N=C(\N)Nc1cc2ccccc2c2ccccc12 | 19.8 | 32.3 | 43.3 | 44.5 | 33.4 | 34.6 | 33.2 | 35.5 | 27.5 | 27.2 | – | – | – | – | – | – | – | – | – | – |
| COc1cc(NC(=O)CSc2nc3ccccc3c(=O)n2CCc2ccccc2)cc(OC)c1OC | > 100 | 6.94 | – | – | > 100 | – | – | 4.46 | 43.9 | – | > 100 | 2.32 | 5.49 | 1.93 | 3.55 | – | – | – | – | – |
| CC(=O)N1CC(=O)NC1=S | > 100 | > 100 | > 100 | > 100 | > 100 | > 100 | > 100 | > 100 | > 100 | > 100 | – | – | – | – | – | – | – | – | – | – |
| O=C(Nc1cccc([N+](=O)[O-])c1)C(=O)C(C(=O)c1ccccc1F)C1OC(=O)C2C=CC=CC21 (stereo not drawn) | 64 | > 100 | > 100 | > 100 | > 100 | > 100 | > 100 | > 100 | 70.6 | > 100 | – | – | – | – | – | – | – | – | – | – |
| C/C=C1/CN2CCC34c5ccccc5N(C)C23C2CC1C4(C(=O)OC)C(O)O2 (stereo not drawn) | > 100 | > 100 | > 100 | > 100 | > 100 | > 100 | > 100 | > 100 | > 100 | > 100 | – | – | – | – | – | – | – | – | – | – |
| COc1c(O)c(O)c2c(c1O)C(=O)c1cc(C)cc(O)c1C2=O | > 100 | > 100 | > 100 | 98.5 | > 100 | > 100 | > 100 | > 100 | > 100 | > 100 | – | – | – | – | – | – | – | – | – | – |
| N#CCCOCN(CO)c1nc(N(CO)COCCC#N)nc(N(CO)COCCC#N)n1 | 41.6 | 38.6 | 56.1 | 61.2 | 45.1 | > 100 | 71.5 | > 100 | 45.1 | 44.2 | – | – | – | – | – | – | – | – | – | – |
| c1ccc(CCN2CCOCC2)nc1 | > 100 | > 100 | > 100 | > 100 | > 100 | > 100 | > 100 | > 100 | > 100 | > 100 | – | – | – | – | – | – | – | – | – | – |
| Nc1cccc2c1C1=NNC(=O)CC1C2 (stereo not drawn) | > 100 | > 100 | > 100 | > 100 | – | > 100 | > 20.3 | > 100 | > 100 | > 100 | – | – | – | – | – | – | – | – | – | – |
| O=C(NCCNc1nccc(-c2c(-c3cccc(O)c3)nc3sccn23)n1)Nc1cccc(C(F)(F)F)c1 | 6.03 | 6.07 | 5.46 | 57.1 | 3.39 | 6.98 | 32.5 | 13.1 | 14.6 | 20 | 2.85 | 2.8 | 1.79 | 3.48 | 3.45 | 2.52 | 3.42 | 2.78 | 4.62 | 3.42 |
| Cc1c2cc[n+](C)cc2c(C)c2c1[nH]c1ccc(Cl)cc12 | 21.5 | 9.6 | > 95.6 | 45.5 | 40.6 | 35.5 | 9.12 | 38.2 | 0.831 | 3.42 | – | – | – | – | – | – | – | – | – | – |
| CCOC(=O)C(=O)Nc1c(CC)cccc1C(C)CC (stereo not drawn) | > 100 | > 100 | > 100 | > 100 | > 100 | > 100 | > 100 | > 100 | > 100 | > 100 | – | – | – | – | – | – | – | – | – | – |
| C=Cc1cc(OC)c2c(c1)c(=O)oc1c2cc(OC)c2c(O)ccc(C3OC(C)C(O)C(C)(O)C3O)c21 (stereo not drawn) | 0.0256 | – | – | 0.947 | 0.00162 | – | – | 1.08 | – | – | – | 0.00134 | – | 0.00143 | 0.000148 | 0.000432 | 0.00037 | – | 0.000113 | 0.00149 |
| CNS(=O)(=O)c1ccc2[nH]c(O)c(C3=Nc4ccccc4C3=O)c2c1 | > 100 | > 100 | > 100 | > 100 | > 100 | – | > 100 | > 100 | > 100 | > 100 | – | – | – | – | – | – | – | – | – | – |
| NC(=O)Nc1ccc(C(=O)NCCCNC(=O)c2ccc(NC(N)=O)cc2)cc1 | > 100 | > 100 | > 100 | > 100 | > 100 | > 100 | > 100 | > 100 | > 100 | – | – | – | – | – | – | – | – | – | – | – |
